Experimental data as given in PubChem BioAssay (NCI).
“And” between values parts separate entries of the source, which are not always exact repeats. Equal entries are not always repeated.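 Interpolation was linear, between the two tested concentrations surrounding the appropriate level; five concentrations were tested over 48 hours in 96-well plates. GI50 is the concentration that inhibits growth by half. TGI denotes the concentration required for complete inhibition of growth.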

Legend:
Test in all cases: inhibition of tumour cell growth, NCI panel, 48 h
A549 NSCLC = system: A549 NSCLC
LXFL 529 NSCLC = system: LXFL 529 NSCLC
ACHN renal = system: ACHN renal
SF-295 CNS = system: SF-295 CNS
UO-31 renal = system: UO-31 renal
HT29 colon = system: HT29 colon
SF-539 CNS = system: SF-539 CNS
M19-MEL melanoma = system: M19-MEL melanoma
BT-549 breast = system: BT-549 breast
MOLT-4 leukemia = system: MOLT-4 leukemia

Compound	TGI (A549 NSCLC) [µM]	TGI (LXFL 529 NSCLC) [µM]	TGI (ACHN renal) [µM]	TGI (SF-295 CNS)	TGI (UO-31 renal) [µM]	TGI (HT29 colon)	TGI (SF-539 CNS)	TGI (M19-MEL melanoma) [µM]	TGI (BT-549 breast)	TGI (MOLT-4 leukemia) [µM]	GI50 (A549 NSCLC)	GI50 (ACHN renal)	GI50 (BT-549 breast)	GI50 (SF-295 CNS)	GI50 (UO-31 renal)	GI50 (HT29 colon)	GI50 (SF-539 CNS)	GI50 (MOLT-4 leukemia)
C/C(=N/NC(=O)CC(=O)N(C(=O)c1ccccc1Cl)c1ccc(C)cc1)c1cc2ccccc2oc1=O	> 100	> 100	> 100	> 100 µM	> 100	> 100 µM	> 100 µM	> 100										
CC1=C(C(=O)CC(=O)C(=O)NC2C3CC4CC(C3)CC2C4)Sc2ccccc2N1 (centres undefined)	> 100	> 100	> 100	> 100 µM	> 100	> 100 µM	> 100 µM	> 100										
COc1cc([C@H]2c3[nH]c4ccccc4c3C[C@H]3COC(=O)N32)cc(OC)c1O	29.5		28.5	81.8 µM	29.7	25.3 µM	2.86 µM	> 100	> 100 µM	11.2								
CCOC(=O)C[C@@]12CCCNC1(C)CCc1ccccc12 (some centres undefined)	> 100		> 100	> 100 µM	> 100	> 100 µM	> 100 µM	> 100		> 100								
COC(=O)C1(F)C(=O)NC(=O)NC1OC (centres undefined)	> 100		> 100	> 100 µM	> 100	> 100 µM	> 100 µM	> 100		> 100								
Cc1n(Cc2ccc3ccccc3c2)c(Cl)c(Cl)[n+]1Cc1ccc2ccccc2c1	22		8.07	8.09 µM	8.24	4.12 µM	3.08 µM		3.17 µM	5.58	5.07 µM	2.59 µM	1.65 µM	2.62 µM	1.71 µM	1.76 µM	1.62 µM	2.31 µM
c1ccc(CC(NCCNC(Cc2ccccc2)c2ccccc2)c2ccccc2)cc1 (centres undefined)	4.69		2.49	1.56 µM	1.96	0.567 µM	1.64 µM		3 µM	0.959	1.1 µM	0.585 µM	1.26 µM	0.372 µM	0.415 µM	0.227 µM	0.451 µM	0.306 µM
CC1(C)OC(COCCOCCCCCO)C(COCCOCCCCCO)O1 (centres undefined)	> 100	> 100	> 100	> 100 µM	> 100	> 100 µM		> 100		> 100								
O=C(Cc1ccc(/C=C/C(=O)c2ncc[nH]2)cc1)Nc1ccc(C(F)(F)F)cc1	27.1		17.8	9.3 µM	6.74	4.47 µM	9.25 µM		8.28 µM	28.5	6.37 µM	6.33 µM	2.11 µM	4.08 µM	2.43 µM	1.09 µM	4.52 µM	2.29 µM
COC(=O)[C@H](Cc1ccccc1)NC(=O)c1csc([C@@H](C[C@H](C(C)C)N(C)C(=O)[C@@H](NC(=O)[C@H]2CCCN2C)C2CC2)OC(C)=O)n1	> 33.3		> 33.3	> 33.3 µM	> 27.9	> 33.3 µM	1.55 µM		7.85 µM	> 33.3	0.977 µM	1.44 µM	0.248 µM	0.254 µM	2.17 µM	0.14 µM	0.29 µM	0.215 µM
COc1ccc(/C=C(/C(=O)n2cnnn2)c2cc(OC)c(OC)c(OC)c2)cc1	> 100		> 100	> 100 µM	> 100	> 100 µM	19.9 µM		7.57 µM	> 100	3.97 µM	6.87 µM	2.32 µM	3.24 µM	5.41 µM	3.42 µM	3.2 µM	4.31 µM
Nc1ncnc2c1c(-c1ccc(Oc3ccccc3)cc1)nn2C[C@@H]1SSC[C@@H]1O	2.57		7.01	5.49 µM	5.63	1.7 µM	26.3 µM		13.4 µM	0.119	0.479 µM	0.398 µM	3.53 µM	1.47 µM	1.54 µM	0.334 µM	1.63 µM	0.0304 µM
CC[C@H](C)[C@H](NC(=O)[C@H]1CCCCN1C)C(=O)N(C)[C@H](C[C@@H](OC(C)=O)c1nc(C(=O)N[C@@H](Cc2ccccc2)C[C@H](C)C(=O)OC)cs1)C(C)C	> 25		> 25	0.000762 µM and 0.00468 µM	> 25	0.0137 µM and < 0.0025 µM	0.00437 µM and < 0.0025 µM		0.0169 µM and < 0.0025 µM	> 25	0.000523 µM and 0.0025 µM	0.000773 µM and 0.0025 µM	0.000385 µM and < 0.0025 µM		0.0032 µM and 0.0025 µM	0.000251 µM and < 0.0025 µM	0.000482 µM and < 0.0025 µM	0.00331 µM and 0.0025 µM
Cn1cnc([N+](=O)[O-])c1Sc1nc(N)nc2nc[nH]c12	> 100		> 100	> 100 µM	> 100	> 100 µM	> 100 µM		> 100 µM	> 100	13.1 µM	10 µM	5.08 µM	0.635 µM	4.71 µM	5.19 µM	3.15 µM	3.55 µM
C[N+](C)=c1nc(N2CCOCC2)ss1	> 100	> 100	> 100	> 100 µM	> 100	> 100 µM	> 100 µM			> 100								
CN(C)C(=O)SC1=C(c2c(Cl)cccc2Cl)C(=O)c2ccccc21	> 55.7		5.03	33.7 µM	6.51	11.9 µM	22.8 µM		23.5 µM	7.06	24.8 µM	2.23 µM	9.78 µM	16.6 µM	2.18 µM	3.47 µM	9.01 µM	2.5 µM
CCc1cccc(CC)c1/C=C/c1cncc(C(=O)NC)c1	> 25		> 25	> 25 µM	> 25	> 25 µM	> 25 µM		> 25 µM	> 25	9.3 µM	22.1 µM	8.95 µM	11.6 µM	8.8 µM	8.79 µM	8.58 µM	12.4 µM
CC(=O)Oc1ccc(C2(c3ccc(OC(C)=O)cc3)C(=O)Nc3ccccc32)cc1	> 100		> 100	> 100 µM	> 100	> 100 µM	> 100 µM		0.524 µM and 0.733 µM	> 100	33.8 µM and 42.9 µM	18.9 µM and 30.6 µM	0.064 µM and 0.158 µM	23.5 µM and 38.3 µM	24 µM and 27.5 µM	30.4 µM and 45.3 µM	26.3 µM and 50.2 µM	16.3 µM and 28.3 µM
O=C(CCN1CCCC1)Nc1ccc2c(Nc3ccccc3)c3ccccc3nc2c1	3.22		1.51	1.91 µM	2.38	3.14 µM	2.44 µM		3.09 µM	1.56	0.113 µM	0.243 µM	1.5 µM	0.498 µM	0.808 µM	0.521 µM	1.14 µM	0.0432 µM
COc1ccccc1/C=C\C(=O)c1ccccc1	41.9		17.5	14 µM	17.3	17.3 µM	26.7 µM		23.3 µM	10.2	19.5 µM	5.4 µM	11 µM	3.27 µM	4.58 µM	3.9 µM	13.8 µM	2.9 µM
CN(C)C/C=C/C(=O)Nc1ccc(C(=O)N2CCC[C@@H](Nc3ncc(Cl)c(-c4c[nH]c5ccccc45)n3)C2)cc1	11		12.7	4.01 µM	23	4.2 µM	0.65 µM		1.22 µM	3.55	0.581 µM	3.41 µM	0.267 µM	0.685 µM	9.84 µM	0.285 µM	0.176 µM	0.182 µM
C[C@@]12CCCC(=O)N1[C@@H](CO)C(c1ccccc1)O2 (some centres undefined)	> 100		> 100	> 100 µM		> 100 µM	> 100 µM	> 100										
CCCn1cnc2c(SCc3ccccc3)nc(N)nc21	> 100		> 100	> 100 µM	> 100	> 100 µM	> 100 µM		> 100 µM	> 100	77.8 µM	> 100 µM	51.9 µM	32.1 µM	67.7 µM	> 100 µM	> 100 µM	95.7 µM
NC(N)=N/N=C/c1c(-c2ccc(Cl)c([N+](=O)[O-])c2)nc2n1CCS2	77.9		37.2	20.8 µM	89	30.9 µM	26.5 µM		50.2 µM	36	16.1 µM	15.7 µM	21.5 µM	7 µM	26 µM	6.13 µM	7.4 µM	3.4 µM
Cn1cc(CO)c2ccccc21	> 100		> 100	> 100 µM	> 100	> 100 µM	> 100 µM		> 100 µM	> 100	64.3 µM	> 100 µM	53.7 µM	34.2 µM	4.28 µM	30.2 µM	40.6 µM	40 µM
